Consider two compounds from article PMC3599558, “Profiling of hepatic clearance pathways of Pittsburgh compound B and human liver cytochrome p450 phenotyping” (EJNMMI Research, 2013).

“Also recorded” adds a separate entry of the source.

In one data set the target is T1, rhCYP1A2 (Homo sapiens, UniProt P05177).
T1 construct: purchased BD Gentest (Woburn, MA, USA); host or cells: Baculovirus transfected insect cell system
T1 sequence (P05177 1-516): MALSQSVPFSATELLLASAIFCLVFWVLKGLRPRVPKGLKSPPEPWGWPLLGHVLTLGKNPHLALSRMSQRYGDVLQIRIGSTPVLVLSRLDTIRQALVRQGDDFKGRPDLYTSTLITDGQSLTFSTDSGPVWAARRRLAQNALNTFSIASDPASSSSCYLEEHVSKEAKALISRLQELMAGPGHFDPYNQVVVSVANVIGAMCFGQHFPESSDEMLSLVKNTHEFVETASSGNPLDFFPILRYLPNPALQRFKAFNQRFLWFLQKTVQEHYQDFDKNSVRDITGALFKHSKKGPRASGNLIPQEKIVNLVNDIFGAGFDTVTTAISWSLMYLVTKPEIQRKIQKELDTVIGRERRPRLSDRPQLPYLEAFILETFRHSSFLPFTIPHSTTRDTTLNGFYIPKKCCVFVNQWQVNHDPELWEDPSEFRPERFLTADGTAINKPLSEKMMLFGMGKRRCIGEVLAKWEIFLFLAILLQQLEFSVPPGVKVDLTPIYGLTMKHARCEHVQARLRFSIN
The experiment in a line: Incubation with recombinantly expressed CYP1A2. The format is in vitro ADME. How it is done: (§1) After a 10 min preincubation at 37°C, the reaction was initiated by addition of 2.0 mM NADPH and incubated for 15 and 60 min. The reactions were terminated by the addition of two volumes of DMSO. Samples were subsequently centrifuged at 4,000 rpm for 10 min. From the resulting supernatant, 10 μL was analysed by liquid chromatography/tandem mass spectrometry (LC-MS/MS). […] Quantification was performed on a TSQ-Vantage instrument (Thermofisher Scientific, Bremen, Germany), fitted with an electrospray ionization source. […] Elution was performed on a Waters XBridge C18 column (3 × 2.1 mm, 2.5 μm; Waters, Boston MA, USA). Solvents A (0.1% formic acid in water) and B (0.1% formic acid in acetonitrile) were used at a flow rate of 500 μL/min. […] The final ratio was held for a further 0.6 min and then reduced again to 5% B over 0.05 min. Data was processed using QuickQuan (Thermofisher Scientific, Bremen, Germany).

A further data set has as its target T2, rhCYP 2C9 (Homo sapiens, UniProt P11712).
T2 construct: purchased BD Gentest (Woburn, MA, USA); host or cells: Baculovirus transfected insect cell system
The data set can be described thus: Incubation with recombinantly expressed CYP2C9. The format is in vitro ADME. How it is done: as §1

The target of another data set is T3, rhCYP 2C19 (Homo sapiens, UniProt P33261).
T3 construct: purchased BD Gentest (Woburn, MA, USA); host or cells: Baculovirus transfected insect cell system
T3 sequence (P33261 whole entry): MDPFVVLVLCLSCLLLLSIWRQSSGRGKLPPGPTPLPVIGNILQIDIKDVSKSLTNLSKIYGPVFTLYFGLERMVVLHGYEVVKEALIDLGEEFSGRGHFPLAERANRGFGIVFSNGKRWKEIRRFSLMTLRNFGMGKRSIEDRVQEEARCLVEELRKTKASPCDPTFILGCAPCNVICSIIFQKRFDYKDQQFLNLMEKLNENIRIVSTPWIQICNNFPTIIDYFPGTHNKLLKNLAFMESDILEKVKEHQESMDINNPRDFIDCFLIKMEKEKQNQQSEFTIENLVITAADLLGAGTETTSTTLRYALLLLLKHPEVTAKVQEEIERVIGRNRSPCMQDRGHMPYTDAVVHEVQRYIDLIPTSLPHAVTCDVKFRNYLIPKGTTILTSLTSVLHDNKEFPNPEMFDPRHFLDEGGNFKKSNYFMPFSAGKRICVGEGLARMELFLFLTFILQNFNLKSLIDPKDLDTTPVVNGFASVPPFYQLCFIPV
The data set can be described thus: Incubation with recombinantly expressed CYP2C19. The format is in vitro ADME. As to the method: as §1

A further data set concerns the target T4, rhCYP 2D6 (Homo sapiens, UniProt P10635).
T4 construct: purchased BD Gentest (Woburn, MA, USA); host or cells: Baculovirus transfected insect cell system
The data set can be described thus: Incubation with recombinantly expressed CYP2D6. The format is in vitro ADME. How it is done: as §1

For the next data set, the target named is T5, rhCYP 3A4 (Homo sapiens, UniProt P08684).
T5 construct: purchased BD Gentest (Woburn, MA, USA); host or cells: Baculovirus transfected insect cell system
T5 sequence (P08684 whole entry): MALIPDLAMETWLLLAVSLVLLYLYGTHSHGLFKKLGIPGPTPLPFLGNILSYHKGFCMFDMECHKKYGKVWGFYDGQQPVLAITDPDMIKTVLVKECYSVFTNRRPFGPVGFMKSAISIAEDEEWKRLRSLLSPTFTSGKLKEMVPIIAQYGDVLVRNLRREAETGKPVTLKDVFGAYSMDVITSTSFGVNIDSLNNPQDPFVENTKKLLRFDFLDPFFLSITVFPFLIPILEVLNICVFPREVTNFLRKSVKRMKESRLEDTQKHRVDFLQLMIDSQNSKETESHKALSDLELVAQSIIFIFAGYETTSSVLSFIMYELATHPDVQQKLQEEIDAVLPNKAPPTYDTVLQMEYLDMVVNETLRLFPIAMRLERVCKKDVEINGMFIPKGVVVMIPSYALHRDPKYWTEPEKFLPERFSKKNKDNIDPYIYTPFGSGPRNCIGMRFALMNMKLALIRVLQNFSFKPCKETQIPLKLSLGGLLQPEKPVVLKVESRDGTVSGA
The data set can be described thus: Incubation with recombinantly expressed CYP3A4. The format is in vitro ADME. How it is done: as §1

Data set [1] can be described thus: Human liver microsomal metabolism (no inhibitor). It counts as in vitro ADME. To be noted: HLM incubations from phenotyping experiments, qualitative LC/MS. How it is done: (§2) After a 10 min preincubation at 37°C, the reaction was initiated by addition of 0.15 mM NADP and further incubated for either 15 or 60 min. The reactions were terminated by the addition of two volumes DMSO. Samples were subsequently centrifuged at 4,000 rpm for 10 min. From the resulting supernatant, 10 μL was analyzed by LC-MS/MS.
(§3) Quantification was performed on a TSQ-Vantage instrument (Thermofisher Scientific, Bremen, Germany), fitted with an electrospray ionization source. […] Elution was performed on a Waters XBridge C18 column (3 × 2.1 mm, 2.5 μm; Waters, Boston MA, USA). Solvents A (0.1% formic acid in water) and B (0.1% formic acid in acetonitrile) were used at a flow rate of 500 μL/min. […] The final ratio was held for a further 0.6 min and then reduced again to 5% B over 0.05 min. Data was processed using QuickQuan (Thermofisher Scientific, Bremen, Germany).
Qualitative high resolution LC/MS data was acquired on a Waters Premier hybrid quadrupole time-of-flight (QToF) mass spectrometer (Waters, Boston MA, USA) equipped with a liquid chromatography system, using a 10 min gradient method and an Acquity UPLC BEH C18 (2.1 × 100 mm, 1.7 μm) column (Waters, Boston MA). The QToF Premier operated with a cone voltage of 30 eV and collision energy of 30 eV. […] The final ratio was held for 2 min and then reduced again to 5% B over 1 min. […]
(Liver microsomes are vesicles of endoplasmic reticulum, rich in cytochrome P450 enzymes.)

The nature of data set [2]: Human liver microsomal metabolism in the presence of cytochrome P450 diagnostic inhibitors. The format is in vitro ADME. As to conditions: PiB 1.0 μM, 60 min. As to the method: as §2, §3
Qualitative high resolution LC/MS data was acquired on a Waters Premier hybrid quadrupole time-of-flight (QToF) mass spectrometer (Waters, Boston MA, USA) equipped with a liquid chromatography system, using a 10 min gradient method and an Acquity UPLC BEH C18 (2.1 × 100 mm, 1.7 μm) column (Waters, Boston MA). The QToF Premier operated with a cone voltage of 30 eV and collision energy of 30 eV. […] The final ratio was held for 2 min and then reduced again to 5% B over 1 min. Interpretation of data was performed with Metabolynx software (Waters, Boston, MA, USA).

Data set [3] deals with rhCYPs 1A2, 2C9, 2C19, 2D6, and 3A4. The experiment in a line: Metabolite profiling of rhCYP incubations. It counts as in vitro ADME, human. To be noted: qualitative LC/MS. As to the method:
After a 10 min preincubation at 37°C, the reaction was initiated by addition of 2.0 mM NADPH and incubated for 15 and 60 min. The reactions were terminated by the addition of two volumes of DMSO. Samples were subsequently centrifuged at 4,000 rpm for 10 min. From the resulting supernatant, 10 μL was analysed by liquid chromatography/tandem mass spectrometry (LC-MS/MS). Control experiments were performed by substituting the active enzyme preparation by insect cell preparations containing no rhCYP.
Qualitative high resolution LC/MS data was acquired on a Waters Premier hybrid quadrupole time-of-flight (QToF) mass spectrometer (Waters, Boston MA, USA) equipped with a liquid chromatography system, using a 10 min gradient method and an Acquity UPLC BEH C18 (2.1 × 100 mm, 1.7 μm) column (Waters, Boston MA). The QToF Premier operated with a cone voltage of 30 eV and collision energy of 30 eV. The gradient employed was 95% solvent A (25 mM ammonium acetate, pH = 9) as the start condition followed by a linear ramp of organic phase concentration from 5% B (25 mM ammonium acetate/MeOH/acetonitrile 10/10/80) to 95% B over 6.5 min. The final ratio was held for 2 min and then reduced again to 5% B over 1 min. Interpretation of data was performed with Metabolynx software (Waters, Boston, MA, USA).

The test system of a further data set is serotonin 5HT1A receptor. On the set-up: method as in PMID 17574977. To be noted: inhibitor of CYP2E1; cited from earlier work.
Where [4] appears, read: PiB 1.0 μM, rhCYP 100 pmol/mL, 15 and 60 min.
The mark [5] stands for this setting: scaled for approximate relative abundances of CYP isoforms in human liver [10].

T4 sequence (P10635 whole entry): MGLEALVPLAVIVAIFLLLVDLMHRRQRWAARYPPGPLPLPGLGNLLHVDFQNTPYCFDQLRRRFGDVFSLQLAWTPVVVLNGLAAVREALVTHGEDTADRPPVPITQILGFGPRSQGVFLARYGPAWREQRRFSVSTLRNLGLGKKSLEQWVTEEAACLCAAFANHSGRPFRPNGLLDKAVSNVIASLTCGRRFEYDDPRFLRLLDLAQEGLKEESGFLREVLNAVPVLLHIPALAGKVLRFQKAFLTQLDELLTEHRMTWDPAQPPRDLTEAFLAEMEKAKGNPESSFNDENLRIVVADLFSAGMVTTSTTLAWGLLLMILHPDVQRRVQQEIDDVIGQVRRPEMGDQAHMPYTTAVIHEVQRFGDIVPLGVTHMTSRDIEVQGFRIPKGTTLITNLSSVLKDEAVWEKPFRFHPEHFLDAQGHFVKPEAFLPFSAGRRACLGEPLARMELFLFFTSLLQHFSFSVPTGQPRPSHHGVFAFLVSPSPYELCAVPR
T2 sequence (P11712 whole entry): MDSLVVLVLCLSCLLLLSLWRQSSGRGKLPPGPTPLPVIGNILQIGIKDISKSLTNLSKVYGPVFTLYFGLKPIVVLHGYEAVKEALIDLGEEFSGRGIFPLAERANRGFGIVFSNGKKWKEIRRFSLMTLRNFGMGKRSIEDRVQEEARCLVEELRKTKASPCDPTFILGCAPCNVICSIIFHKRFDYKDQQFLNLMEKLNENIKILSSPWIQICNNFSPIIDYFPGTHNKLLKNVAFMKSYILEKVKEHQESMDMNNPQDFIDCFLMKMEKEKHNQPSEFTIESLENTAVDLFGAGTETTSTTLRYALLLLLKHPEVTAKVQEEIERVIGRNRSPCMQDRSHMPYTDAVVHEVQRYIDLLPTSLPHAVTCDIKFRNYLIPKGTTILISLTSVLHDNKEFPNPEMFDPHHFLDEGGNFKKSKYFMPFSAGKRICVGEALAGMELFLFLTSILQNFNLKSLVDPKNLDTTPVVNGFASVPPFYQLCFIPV

`CNc1ccc(-c2nc3ccc(O)cc3s2)cc1` [PiB]: the “observed turnover with rhCYP1A2” value at rhCYP1A2 (setting [4]) was “substrate; also recorded: high turnover”. The “contribution of CYP1A2 to metabolism after scaling” value on rhCYP1A2 (setting [5]) was “primarily metabolized”. Moreover, the “observed turnover with rhCYP2C9” value on rhCYP 2C9 (setting [4]) was “substrate”. Besides, the “contribution of CYP2C9 to metabolism after scaling” value on rhCYP 2C9 (setting [5]) is given as “primarily metabolized”. The “observed turnover with rhCYP2C19” value on rhCYP 2C19 (setting [4]) is “substrate”. Also, the “contribution of CYP2C19 to metabolism after scaling” value on rhCYP 2C19 (setting [5]) is listed as “only minor contributions”. Also, the “observed turnover with rhCYP2D6” value on rhCYP 2D6 (setting [4]) is given as “substrate”. Moreover, the “contribution of CYP2D6 to metabolism after scaling” value at rhCYP 2D6 (setting [5]) is recorded as “only minor contributions”. The “observed turnover with rhCYP3A4” value on rhCYP 3A4 (setting [4]) is on record as “substrate; also recorded: high turnover”. Moreover, the “contribution of CYP3A4 to metabolism after scaling” value on rhCYP 3A4 (setting [5]) was “primarily metabolized”. Also, the “drug-related species detected in HLM” value in [1] is “desmethyl metabolite”. In addition, in data set [2] (alpha-naphthoflavone 3 μM), the “change in HLM turnover with inhibitor of CYP1A2” value is recorded as “significant reduction”. In addition, the “change in HLM turnover with inhibitor of CYP2C19” value in data set [2] (benzylphenobarbital 1 μM) is reported as “reduction in turnover is also apparent”. Further, in data set [2] (ketoconazole 1 μM), the “change in HLM turnover with inhibitor of CYP3A4” value is “significant reduction”. The “change in HLM turnover with inhibitor of CYP2D6” value in data set [2] (quinidine 3 μM) is “reduction in turnover is also apparent”. In data set [2] (sulfaphenazole 10 μM), the “change in HLM turnover with inhibitor of CYP2C9” value was “reduction in turnover is also apparent”. Besides, in [3], the “drug-related species observed in rhCYP incubations” value is “desmethyl metabolite”.

With `COc1ccccc1N1CCN(CCN(C(=O)C2CCC(F)CC2)c2ccccn2)CC1` (stereo not drawn) [FCWAY], in the data set with serotonin 5HT1A receptor, the “metabolism after pretreatment with disulfuram” value was “significantly reduced”.
